Legend:
[1] = test system: 12 recombinant human UGT isoforms; assay: Phenotyping using 12 recombinant UGTs; format: in vitro ADME; settings: by CLint
UGT1A1 [2] = target: T1, UGT1A1 (Homo sapiens, UniProt P22309); assay: Glucuronidation kinetics with recombinant human UGT1A1; format: in vitro ADME; settings: for Glucuronide isomers formed by UGT1A1: recombinant UGT1A1
T1 sequence (P22309 26-533): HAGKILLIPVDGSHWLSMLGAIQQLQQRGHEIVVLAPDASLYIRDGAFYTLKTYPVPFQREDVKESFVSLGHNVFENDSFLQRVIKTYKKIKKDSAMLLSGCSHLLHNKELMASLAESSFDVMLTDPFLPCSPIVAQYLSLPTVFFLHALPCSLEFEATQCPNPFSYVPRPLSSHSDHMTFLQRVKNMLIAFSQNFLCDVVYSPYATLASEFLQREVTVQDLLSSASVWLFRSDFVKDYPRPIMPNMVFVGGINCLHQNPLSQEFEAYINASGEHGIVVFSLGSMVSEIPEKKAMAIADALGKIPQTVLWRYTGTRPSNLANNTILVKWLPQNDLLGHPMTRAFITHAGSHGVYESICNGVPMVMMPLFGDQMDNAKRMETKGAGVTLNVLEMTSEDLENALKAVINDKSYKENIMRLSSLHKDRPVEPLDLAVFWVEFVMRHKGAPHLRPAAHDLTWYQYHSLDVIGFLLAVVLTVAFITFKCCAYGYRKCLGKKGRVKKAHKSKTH

[3] = test system: pooled human liver microsomes (pHLM); assay: Glucuronidation kinetic profile in pooled human liver microsomes; format: in vitro ADME; settings: flavonoids 4′-O-glucuronidation, SN-38 glucuronidation
UGT1A1 [4] = target: T1, UGT1A1; format: in vitro ADME
UGT1A9 = target: T2, UGT1A9 (Homo sapiens, UniProt O60656); assay: Glucuronidation kinetics with recombinant human UGT1A9; format: in vitro ADME; settings: 10 μM
T2 sequence (O60656 26-530): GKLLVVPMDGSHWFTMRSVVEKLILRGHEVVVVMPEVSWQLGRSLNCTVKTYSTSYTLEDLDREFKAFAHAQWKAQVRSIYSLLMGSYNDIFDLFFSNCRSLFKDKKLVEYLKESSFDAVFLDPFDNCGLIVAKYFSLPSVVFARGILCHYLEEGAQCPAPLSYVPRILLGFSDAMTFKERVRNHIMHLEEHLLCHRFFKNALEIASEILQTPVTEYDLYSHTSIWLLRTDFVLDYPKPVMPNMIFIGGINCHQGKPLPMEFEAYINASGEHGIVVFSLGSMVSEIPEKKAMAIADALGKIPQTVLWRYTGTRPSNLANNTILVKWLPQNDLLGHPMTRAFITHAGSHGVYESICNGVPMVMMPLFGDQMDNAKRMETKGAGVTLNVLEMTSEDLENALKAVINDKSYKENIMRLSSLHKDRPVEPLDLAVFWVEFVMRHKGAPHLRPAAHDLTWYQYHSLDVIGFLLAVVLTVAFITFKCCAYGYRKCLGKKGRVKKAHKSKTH

[5] = after a standard therapy; cited from earlier work

Row | Structure (SMILES) | Main isoforms glucuronidating the flavonoid [1] | Km for recombinant UGT1A1 (4′-O-glucuronidation) compared with pooled HLM (UGT1A1 [2]) | Glucuronide isomers formed by UGT1A1 (UGT1A1 [2]) | Pattern of kinetic profile [3] | Glucuronidation in pHLM correlated with UGT1A1 activities (RAF approach) (UGT1A1 [4]) [%] | UGT1A9 activity, folds less than that of UGT1A1 (UGT1A9) [folds] | In vivo concentration [5] [µM]
1 | O=c1c(O)c(-c2ccc(O)c(O)c2)oc2ccccc12 [33′4′THF, 3,3′,4′-trihydroxyflavone] | UGT1A1, 1A7 and 1A9 | essentially identical | 3′-O- and 4′-O-glucuronide | substrate inhibition |  |  | 
2 | O=c1c(O)c(-c2ccc(O)cc2)oc2ccc(O)cc12 [364′THF, 3,6,4′-trihydroxyflavone] | UGT1A1, 1A7 and 1A9 | essentially identical | 3-O-, 6-O-, and 4′-O-glucuronide | substrate inhibition |  |  | 
3 | CCc1c2c(nc3ccc(O)cc13)-c1cc3c(c(=O)n1C2)COC(=O)[C@]3(O)CC [SN-38, 7-ethyl-10-hydroxycamptothecin] |  |  |  | substrate inhibition | 103 ± 8 | ~5 | < 0.1

Source: paper PMC3404744 (Molecular Pharmaceutics, 2011)
